This note sets out measurements from ChEMBL document CHEMBL1201862, “PubChem BioAssay data set” (2004).

Active and inactive are the calls of the source. Cut-off read from the data, not from the text of the source, for most assays here: actives have a measured EC50 and inactives only a lower limit.

The subject of one assay is INS1. The assay is described as follows: beta cell apoptosis inhibitors, cytokine rescue, dose response, luminescence, retest (AID 449756).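 Note: cell death triggered by IL-1 beta plus TNF-alpha plus IFN-gamma mixture; protective hits raise ATP signal compared with cytokine alone wells.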 Format: functional, cell-based. To be noted: Rattus norvegicus, INS1.
For assay [1], the target named is T1, Rac GTPase-activating protein 1 (Homo sapiens, UniProt Q9H0H5).
T1 sequence (Q9H0H5 whole entry): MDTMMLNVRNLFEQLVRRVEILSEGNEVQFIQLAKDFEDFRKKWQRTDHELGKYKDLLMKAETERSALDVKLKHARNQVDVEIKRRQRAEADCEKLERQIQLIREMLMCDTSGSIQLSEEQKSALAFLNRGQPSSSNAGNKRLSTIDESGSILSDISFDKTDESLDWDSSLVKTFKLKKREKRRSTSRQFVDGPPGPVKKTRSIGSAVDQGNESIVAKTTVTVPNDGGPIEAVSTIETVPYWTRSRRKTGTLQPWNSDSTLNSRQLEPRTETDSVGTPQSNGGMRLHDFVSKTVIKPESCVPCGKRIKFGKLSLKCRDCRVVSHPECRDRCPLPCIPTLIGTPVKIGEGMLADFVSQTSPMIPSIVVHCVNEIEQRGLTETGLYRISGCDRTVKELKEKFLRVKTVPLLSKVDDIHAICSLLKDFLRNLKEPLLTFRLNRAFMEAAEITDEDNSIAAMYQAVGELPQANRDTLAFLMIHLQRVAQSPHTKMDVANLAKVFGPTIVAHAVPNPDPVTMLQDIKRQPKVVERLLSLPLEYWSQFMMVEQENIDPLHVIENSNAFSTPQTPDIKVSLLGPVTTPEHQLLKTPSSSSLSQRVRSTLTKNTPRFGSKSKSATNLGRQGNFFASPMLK
The assay is described as follows: MgcRacGAP GTPase-activating activity inhibitors, confirmation, biochemical, ADP Hunter fluorescence, primary and confirmatory (AID 624330). It is filed as functional.

A further assay has as its target Cytochrome P450 3A4 (Homo sapiens, UniProt P08684).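 Note: CYP3A4 tested as one member of a cytochrome P450 panel screen.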
The target of assay [2] is T2, Corticotropin-releasing factor receptor 2/Corticotropin-releasing factor-binding protein (Homo sapiens, UniProt P24387+Q13324).
T2 sequence (Q13324 whole entry): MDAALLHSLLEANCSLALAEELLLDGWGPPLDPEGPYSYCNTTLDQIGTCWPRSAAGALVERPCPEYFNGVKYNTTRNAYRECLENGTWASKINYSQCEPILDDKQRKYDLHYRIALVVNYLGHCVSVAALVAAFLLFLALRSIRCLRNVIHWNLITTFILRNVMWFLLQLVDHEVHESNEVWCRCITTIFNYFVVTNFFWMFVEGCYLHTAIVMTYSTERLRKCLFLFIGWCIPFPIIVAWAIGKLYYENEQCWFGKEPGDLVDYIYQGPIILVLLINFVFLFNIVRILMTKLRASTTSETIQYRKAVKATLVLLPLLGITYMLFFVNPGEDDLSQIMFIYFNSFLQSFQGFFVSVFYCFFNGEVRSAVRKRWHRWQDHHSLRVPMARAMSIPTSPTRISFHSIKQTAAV
T2 sequence (P24387 whole entry): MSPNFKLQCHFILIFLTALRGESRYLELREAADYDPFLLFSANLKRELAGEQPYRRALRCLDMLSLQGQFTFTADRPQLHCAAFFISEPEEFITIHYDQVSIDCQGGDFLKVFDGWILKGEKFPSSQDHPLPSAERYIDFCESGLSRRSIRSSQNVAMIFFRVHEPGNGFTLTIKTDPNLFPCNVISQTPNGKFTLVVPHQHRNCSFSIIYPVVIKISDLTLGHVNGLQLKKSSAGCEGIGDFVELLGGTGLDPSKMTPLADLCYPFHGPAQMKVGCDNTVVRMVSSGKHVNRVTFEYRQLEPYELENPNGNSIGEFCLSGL
The assay is described as follows: Dose Response confirmation of uHTS hits for small molecule antagonists of the CRF-binding protein and CRF-R2 receptor complex. Format: functional. Conditions: read-out: IC50_Mean.

The target in assay [3] is T2, Corticotropin-releasing factor receptor 2/Corticotropin-releasing factor-binding protein. In words: activators of CRF receptor 2 with binding protein – uHTS hits, confirmation (AID 602473). Format: functional. To be noted: read-out: EC50_Mean.
A short description of assay [4]: inhibitors of SNCA 5'UTR-driven reporter translation, confirmation, H4 neuroglioma cells, luminescence (AID 1988). It is filed as functional, cell-based.
A short description of assay [5]: inhibitors of firefly luciferase expression or activity, dose response, H4 neuroglioma cells, luminescence (AID 1990). Format: functional, cell-based.
Assay [6] in a line: Luminescence Cell-Based Dose Response HTS to Identify Inhibitors of 5'UTR Stem-Loop Driven Prion Protein mRNA Translation in H4 Neuroglioblastoma Cells. [Related pubchem assays: 1827 (Project Summary), 1813 (Primary HTS)]. It is filed as functional.
Another assay relates to Streptococcus. The assay is described as follows: Group A Streptococcus viability loss, dose response, counter-screen for streptokinase expression inhibitor project, luminescence, BacTiterGlo (AID 1915).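 Note: potency for reduction of bacterial viability or growth.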 Format: functional, organism-based.
Assay [7] has as its system Streptococcus sp. 'group A'. The assay is described as follows: growth inhibition of control SK(-) GAS strain, dose response, counter-screen for streptokinase expression inhibitor project, luminescence, kanamycin, BacTiterGlo, confirmation (AID 1900). Format: functional, organism-based. For orientation: A counterscreen serves to expose hits that act by an unwanted route or on another target.

A further assay addresses T3, Streptokinase A (Streptococcus pyogenes serotype M1, UniProt P10520).
T3 sequence (P10520 whole entry): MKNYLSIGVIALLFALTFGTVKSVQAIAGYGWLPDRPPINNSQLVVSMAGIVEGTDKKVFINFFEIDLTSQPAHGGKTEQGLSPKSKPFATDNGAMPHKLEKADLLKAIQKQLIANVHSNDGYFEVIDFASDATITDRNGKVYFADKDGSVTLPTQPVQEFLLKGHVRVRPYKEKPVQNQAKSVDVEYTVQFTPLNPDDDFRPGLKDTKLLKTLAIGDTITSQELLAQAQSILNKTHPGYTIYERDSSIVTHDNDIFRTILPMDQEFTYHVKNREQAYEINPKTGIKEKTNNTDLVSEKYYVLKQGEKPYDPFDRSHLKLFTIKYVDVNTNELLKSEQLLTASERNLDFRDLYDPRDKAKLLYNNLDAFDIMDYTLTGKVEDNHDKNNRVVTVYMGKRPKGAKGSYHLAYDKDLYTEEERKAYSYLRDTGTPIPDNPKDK
In words: S. pyogenes streptokinase expression inhibitors, potency, dose response, plasminogen activation absorbance, OD405 (AID 1914).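 Note: secreted streptokinase activity via plasminogen activation per viability signal from cell pellet.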 Format: functional, Streptococcus pyogenes M1 GAS.

Assay [8] in a line: inhibitors of intracellular T. cruzi replication, confirmation, NIH3T3 host cells, beta-gal luminescence (AID 2044).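 Note: intracellular parasites grown in NIH/3T3 mouse fibroblasts as host cells; luminescent beta-galactosidase reporter signal from transgenic T. cruzi replicating inside host cells; inhibitors lower the luminescence signal.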 It is filed as functional, cell-based.
A short description of assay [9]: cytotoxicity toward NIH3T3 fibroblasts, dose response, counter-screen, cell-based, ATP luminescence, mouse fibroblasts (AID 2010).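 Note: cells exposed to compound for about 90 hours before reading.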 It is filed as functional.

For orientation: AC50 means the concentration giving half of the maximal activity seen.

Sequence of Cytochrome P450 3A4 (P08684 whole entry): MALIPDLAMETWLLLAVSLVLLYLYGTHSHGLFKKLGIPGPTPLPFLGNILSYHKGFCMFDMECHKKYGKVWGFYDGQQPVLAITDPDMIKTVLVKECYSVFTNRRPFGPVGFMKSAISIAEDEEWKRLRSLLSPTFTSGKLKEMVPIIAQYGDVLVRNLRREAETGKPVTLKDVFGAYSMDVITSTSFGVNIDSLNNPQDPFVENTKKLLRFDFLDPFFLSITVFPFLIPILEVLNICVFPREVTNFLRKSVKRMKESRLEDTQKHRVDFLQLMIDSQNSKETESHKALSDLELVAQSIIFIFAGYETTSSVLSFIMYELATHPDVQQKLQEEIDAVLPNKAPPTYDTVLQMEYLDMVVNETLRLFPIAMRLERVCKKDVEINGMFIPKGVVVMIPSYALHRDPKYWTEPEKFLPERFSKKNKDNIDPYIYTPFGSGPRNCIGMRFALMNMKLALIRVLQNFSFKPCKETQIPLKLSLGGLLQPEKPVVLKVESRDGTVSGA

For `O=C1C=C(c2ccc(F)cc2OCc2ccccc2)C[C@@H](c2ccc(Cl)cc2)C1`, in the assay on INS1, the AC50 is 4.89 µM (active). `CC(C)(C)N=C(S)Nc1ccc(Nc2ccccc2)cc1`: the IC50 in [1] is 103 µM (active). Besides, on Cytochrome P450 3A4, the AC50 was 11.2 µM (inconclusive). Turning to `O=C(COc1ccccc1)N1CCN(CC2CC3C=CC2C3)CC1` (centres undefined), in assay [1], the IC50 is 175 µM (active). In the case of `O=C1CC(Nc2cc(O)nc(O)n2)C(=O)N1c1ccccc1Cl` (centres undefined), in assay [2], the IC50 is > 47.1 µM (inactive). Further, the EC50 in [3] is > 53 µM (inactive). `O=C(CNC(=O)c1cccnc1)N/N=C/c1ccc(O)cc1O`: the IC50 in [1] was 97.4 µM (active). In the case of `CNc1nc(NC)nc(NNC(=O)c2ccccc2)n1`, in [2], the IC50 is > 47.1 µM (inactive). Further, the EC50 in assay [3] is > 53 µM (inactive). The like results for `Cc1ccc(C)c(NC(S)=NCCCN2CCOCC2)c1` were, in that order, > 47.1 µM (inactive) and > 53 µM (inactive). On to `O=C(c1ccc2snnc2c1)N1CCN(c2ccccn2)CC1`, for which the IC50 in assay [2] is > 47.1 µM (inactive). The EC50 in assay [3] is > 53 µM (inactive). With `CC(C)NCC(=O)Nc1c2c(nc3ccccc13)CCC2`, the IC50 in assay [1] was 53.2 µM (active). On the same count and under the same terms, for `COc1ccccc1Nc1nnc(S)s1` the value was 57.1 µM (active). On to `C/C(=N\Nc1nc(C)cc(-c2ccccc2)n1)c1ccc(F)cc1`, for which the AC50 in the assay on INS1 was 3.13 µM (active). For `CC/C(C)=C1\SC(N2CCN(c3cccc(C(F)(F)F)c3)CC2)=NC1=O`, the EC50 is > 120 µM (not active) in [4], 19.9 µM (active) in [5] and > 120 µM (not active) in assay [6]. Consider `C/C(=N\NC(=O)c1ccc(NS(=O)(=O)c2cccs2)cc1)c1ccccc1`, for which the IC50 in [2] is > 47.1 µM (inactive). The EC50 in assay [3] was > 53 µM (inactive). With `COc1cccc(/C=N/NC(=O)c2c(-c3ccccc3)noc2C)c1O`, in the assay on INS1, the AC50 was 2.5 µM (active). Regarding `COc1cc(/C=C/CN2CCN(CCC(C)C)C(CCO)C2)ccc1O` (centres undefined), the IC50 in assay [1] was 101 µM (active).

With `Cc1ccccc1NS(=O)(=O)c1ccc(C(=O)N(C)CC(=O)Nc2ccccc2Br)cc1`, in assay [2], the IC50 is > 47.1 µM (inactive). For the same compound, the EC50 in assay [3] is > 53 µM (inactive). As to `Cc1ccc(C(=O)NCCSc2ccccc2)cc1S(=O)(=O)Nc1ccccc1`, the EC50 in assay [4] is > 120 µM (not active); in [5], 29.3 µM (active); in assay [6], 23.3 µM (active). `CCn1c(C)nc2cc(C(=O)NN=Cc3ccc([N+](=O)[O-])cc3)ccc21`: in assay [2], the IC50 is > 47.1 µM (inactive). The EC50 in assay [3] was > 53 µM (inactive). Consider `COc1ccccc1N1CCN(C(=O)/C=C/c2cccs2)CC1`, for which the IC50 in assay [2] was > 47.1 µM (inactive). In addition, in assay [3], the EC50 is > 53 µM (inactive). On to `CC1(C)CC(=O)C=C(Nc2ccc(Br)cn2)C1`, for which the EC50 in [4], in assay [5] and in assay [6] was > 120 µM (not active) throughout. In the case of `COC(=O)c1[nH]c2ccccc2c1NC(=O)Oc1ccccc1`, in assay [1], the IC50 was 15.9 µM (active). Consider `O=[N+]([O-])c1cccc(CN2CCN(Cc3ccco3)CC2)c1`, for which the IC50 in assay [1] was 98.5 µM (active). For the compound `C[C@H](NC(=O)[C@@H]1Cc2ccccc2CN1)C(=O)NC1CCCCC1`, the IC50 in assay [2] was > 47.1 µM (inactive). Besides, in assay [3], the EC50 is > 53 µM (inactive).

`CCCCCCc1ccc(N2C[C@H](Cc3ccccc3)[C@@H](CC(=O)Nc3ccccc3)C2=O)cc1`: the AC50 in the assay on INS1 was 14.2 µM (active). Turning to `O=C(NCC1OCCc2ccccc21)c1ccc(NC(=O)c2ccc(Cl)cc2)cc1` (centres undefined), the EC50 in assay [4] is 12.5 µM (active); in assay [5], > 120 µM (not active); in assay [6], 14.2 µM (active).

For `CCC(C)Nc1nc(N)c([N+](=O)[O-])c(Nc2cc(OC)ccc2OC)n1` (centres undefined), the EC50 in assay [4] was 13.3 µM (active); with Streptococcus it was 11.9 µM (active); in assay [5], 10.7 µM (active); in assay [7], 2.35 µM (active); in assay [6], 12.8 µM (active); on Streptokinase A, > 150 µM (not active). Take `CC1(C)CC(=O)C=C(Nc2ccc(O)cc2)C1`: the IC50 in [1] is 20.2 µM (active). For the compound `Cc1ccc(C)c(C(C)NC(=O)c2ccccc2Br)c1` (centres undefined), the IC50 in [2] was > 47.1 µM (inactive). In assay [3], the EC50 was > 53 µM (inactive). `COc1cc([C@@H]2c3cc4c(cc3[C@@H](O)[C@@H](CO)[C@@H]2CO)OCO4)cc(OC)c1O[Si](C)(C)C(C)(C)C`: the figures for the EC50 in [4], in assay [5] and in [6] were 11.5 µM (active), 15.9 µM (active) and 39.1 µM (active), respectively. For `O=[N+]([O-])c1cc(C(F)(F)F)ccc1NCCCCNS(=O)(=O)c1ccc(Cl)cc1`, the AC50 in the assay with INS1 was 6.5 µM (active). As to `Nc1ccc2c(c1)Cc1cc(N)c(Br)cc1-2`, the IC50 in [1] was 7.57 µM (active).

For `CCCCN(Cc1cc2cc(OC)ccc2nc1O)S(=O)(=O)c1ccc(C)cc1`, the EC50 in [4] is 11.1 µM (active); in assay [5] it was 16 µM (active); in assay [6], 11.3 µM (active). For `COc1ccc(C(=O)NCC(=O)N/N=C/c2ccc([N+](=O)[O-])s2)cc1OC`, the values for the EC50 in assay [8] and in [9] were 0.504 µM (active) and > 60 µM (not active), respectively. In addition, in the assay with INS1, the AC50 is 8.94 µM (active). Regarding `O=C(Oc1ccc2c(c1)OCO2)c1ccc(Br)c(S(=O)(=O)N2CCOCC2)c1`, the IC50 in assay [1] is 76.1 µM (active). In the case of `CCOc1ccc(CNC(=O)CCCn2nc(C)c3c(C)n(-c4ccc(C)cc4)nc3c2=O)cc1`, the EC50 is 32.2 µM (active) in assay [4], 11.4 µM (active) in assay [5] and > 120 µM (not active) in [6].

For `CC(NC(=O)COC(=O)C12CC3CC(CC(Br)(C3)C1)C2)c1ccccc1` (centres undefined), the IC50 in assay [2] was > 47.1 µM (inactive). The EC50 in assay [3] was > 53 µM (inactive).
